Earlier results on two compounds are cited in patent US20230310471A1, “METHODS, DEVICES, AND SYSTEMS FOR TREATING LENS PROTEIN AGGREGATION DISEASES” (priority 2022, published 2023).

The series has as its system vimentin. The following applies: background statement, no experimental details printed.

`O=S(=O)(F)Cc1ccccc1` [PMSF, phenylmethylsulfonyl fluoride]: the vimentin degradation result is “decrease vimentin degradation”.
As for `CC(=O)N[C@@H](CC(C)C)C(=O)N[C@@H](CC(C)C)C(=O)N[C@H](C=O)CCCNC(=N)N` [leupeptin], the vimentin degradation result is reported as “decrease vimentin degradation”.
